{
  "source": "patent US5972670A",
  "about": "“Blue copper oxidase mutants with enhanced activity” (priority 1998, dated 1999)",
  "molecules": {"B1": {"name": "Rhizoctonia solani laccase isozyme 4 (rsl4; RsL), wild type (pJiWa59), SEQ ID NO:25 (Thanatephorus cucumeris) (protein)", "chain": "AVRNYKFDIKNVNVAPDGFQRPIVSVNGLVPGTLITANKGDTLRINVTNQLTDPSMRRATTIHWHGLFQATTADEDGPAFVTQCPIAQNLSYTYEIPLHGQTGTMWYHAHLASQYVDGLRGPLVIYDPNDPHKSRYDVDDASTVVMLEDWYHTPAPVLEKQMFSTNNTALLSPVPDSGLINGKGRYVGGPAVPRSVINVKRGKRYRLRVINASAIGSFTFSIEGHRLTVIEADGIPHQPLPVDSFQIYAGQRYSVIVEANQTAANYWIRAPMTVAGAGTNANLDPTNVFAVLHYEGAPNAEPTTEQGSAIGTALVEENLHALINPGAPGGSAPADVSLNLAIGRSTVDGILRFTFNNIKYEAPSLPTLLKILANNASNDADFTPNEHTIVLPHNKVIGAQHHRGADHPIHLHGHVFDIVKSLGGTPNYVNPPRRDVVRVGGTGVVLRFKADNPGPWFVHCHIDCTWRLGSHLSLPRPPARFARVSSRSSPTMPGTSSAPSTRLFLPICSKW"}, "B2": {"name": "Myceliophthora thermophila laccase (lcc-1; MtL), wild type (pRaMB17), SEQ ID NO:27 (Thermothelomyces thermophilus ATCC 42464) (protein)", "chain": "QQSCNTPSNRACWTDGYDINTDYEVDSPDTGVVRPYTLTLTEVDNWTGPDGVVKEKVMLVNNSIIGPTIFADWGDTIQVTVINNLETNGTSIHWHGLHQKGTNLHDGANGITECPIPPKGGRKVYRFKAQQYGTSWYHSHFSAQYGNGVVGAIQINGPASLPYDTDLGVFPISDYYYSSADELVELTKNSGAPFSDNVLFNGTAKHPETGEGEYANVTLTPGRRHRLRLINTSVENHFQVSLVNHTMCIIAADMVPVNAMTVDSLFLGVGQRYDVVIEANRTPGNYWFNVTFGGGLLCGGSRNPYPAAIFHYAGAPGGPPTDEGKAPVDHNCLDLPNLKPVVARDVPLSGFAKRADNTLDVTLDTTGTPLFVWKVNGSAINIDWGRAVVDYVLTQNTSFPPGYNIVEVNGADQWSYWLIENDPGAPFTLPHPMHLHGHDFYVLGRSPDESPASNERHVFDPARDAGLLSGANPVRRDVSMLPAFGWVVLSFRADNPGAWLFHCHIAWHVSGGLGVVYLERADDLRGAVSDADADDLDRLCADWRRYWPTNPYPKSDSGL"}},
  "key": {"[1]": {"molecular_target": "Myceliophthora thermophila laccase (MtL) mutant \"T\" V509L/S510E/G511A (pBANe22T) (Thermothelomyces thermophilus, UniProt G2QG31, G554A/S553E/V552L)", "format": "biochemical", "procedure": "(§1) The molecular weights of the mature laccases are used to calculate both extinction coefficients and turnover numbers. The molecular weights are determined from the deduced amino acid sequences of the DNA sequences (FIG. 6: SEQ ID NOS:24 and 25, and FIG. 7: SEQ ID NOS:26 and 27). Protein concentrations (expressed as subunits) are measured based on the extinction coefficients determined by quantitative amino acid analysis.\n(§2) Km and kcat are obtained from the initial rate (v), enzyme concentration (E), and substrate concentration (S) in accordance to the equation v=kcat ES/(Km +S) by non-linear regression fitting using the Prizm program (GraphPad, San Diego, Calif.). […] The O2 concentration in air-saturated buffer solution is assumed as the same in plain water (0.28 mM)."}, "[2]": {"molecular_target": "Myceliophthora thermophila laccase (MtL) mutant \"M\" L513F (pRaMB17M) (Thermothelomyces thermophilus, UniProt G2QG31, form not given/L556F)", "format": "biochemical", "procedure": "as §1, §2"}, "[3]": {"molecular_target": "Rhizoctonia solani laccase isozyme 4 (RsL) mutant \"M\" L470F (pJiWa86) (Thanatephorus cucumeris, UniProt Q02081)", "format": "biochemical", "procedure": "as §1, §2"}, "[4]": {"molecular_target": "Rhizoctonia solani laccase isozyme 4 (RsL) mutant \"T\" L466V/E467S/A468G (pJiWa85) (Thanatephorus cucumeris, UniProt Q02081)", "format": "biochemical", "procedure": "as §1, §2"}, "[5]": {"molecular_target": "T1, Myceliophthora thermophila laccase (lcc-1; MtL), wild type (pRaMB17), SEQ ID NO:27 (Thermothelomyces thermophilus, UniProt G2QG31)", "T1 sequence (G2QG31 with tags, fused parts or gaps INS108NSII/R109G/T291C/S323N/P398A/P430A/T522S/A533S/H588R)": "B2 chain", "test": "Syringaldazine and ABTS oxidase kinetics (Km, kcat), MtL wt", "conditions": "8 mM MES-NaOH buffer, pH 5.3, spectroscopic", "procedure": "as §1, §2"}, "[6]": {"molecular_target": "T2, Rhizoctonia solani laccase isozyme 4 (rsl4; RsL), wild type (pJiWa59), SEQ ID NO:25 (Thanatephorus cucumeris, UniProt Q02081)", "T2 sequence (Q02081 21-531)": "B1 chain", "test": "Syringaldazine and ABTS oxidase kinetics (Km, kcat), RsL wt", "format": "biochemical", "conditions": "8 mM MES-NaOH buffer, pH 5.3, spectroscopic", "procedure": "as §1, §2"}, "[7]": {"substrate": "CCn1c(=NN=c2sc3cc(S(=O)(=O)O)ccc3n2CC)sc2cc(S(=O)(=O)O)ccc21", "test": "purified protein, by the assay type", "conditions": "8 mM MES-NaOH buffer, pH 5.3, spectroscopic"}, "[8]": {"substrate": "COc1cc(C=NN=Cc2cc(OC)c(O)c(OC)c2)cc(OC)c1O", "test": "purified protein, by the assay type", "conditions": "8 mM MES-NaOH buffer, pH 5.3, spectroscopic"}, "[9]": {"conditions": "8 mM MES-NaOH buffer, pH 5.3, spectroscopic"}, "[10]": {"conditions": "read-out: Km (ABTS), 8 mM MES-NaOH buffer, pH 5.3, spectroscopic"}, "[11]": {"conditions": "read-out: Km (SGZ), 8 mM MES-NaOH buffer, pH 5.3, spectroscopic"}},
  "note": "Like-named read-outs stand apart in the source and are kept apart here.",
  "data": [
    {"molecule": "CCn1c(=NN=c2sc3cc(S(=O)(=O)O)ccc3n2CC)sc2cc(S(=O)(=O)O)ccc21", "note": "[ABTS, 2,2'-azinobis(3-ethylbenzthiazoline-6-sulfonic acid)]", "values": [
      {"measurement": "kcat (ABTS)", "setting": "[1]; [9]", "result": "8.83 ± 0.333", "unit": "s⁻¹"},
      {"measurement": "kcat (ABTS)", "setting": "[2]; [9]", "result": "30 ± 1.67", "unit": "s⁻¹"},
      {"measurement": "Km", "setting": "[2]; [10]", "result": "43 ± 3", "unit": "µM"},
      {"measurement": "kcat (ABTS)", "setting": "[3]; [9]", "result": "12.7 ± 0.5", "unit": "s⁻¹"},
      {"measurement": "Km", "setting": "[3]; [10]", "result": "125 ± 13", "unit": "µM"},
      {"measurement": "kcat (ABTS)", "setting": "[4]; [9]", "result": "0.333 ± 0.017", "unit": "s⁻¹"},
      {"measurement": "Km", "setting": "[4]; [10]", "result": "60 ± 4", "unit": "µM"},
      {"measurement": "kcat (ABTS)", "setting": "[5]", "result": "63.33 ± 5", "unit": "s⁻¹"},
      {"measurement": "kcat (ABTS)", "setting": "[6]", "result": "41.67 ± 1.67", "unit": "s⁻¹"}
    ]},
    {"molecule": "COc1cc(C=NN=Cc2cc(OC)c(O)c(OC)c2)cc(OC)c1O", "note": "[SGZ, syringaldazine]", "values": [
      {"measurement": "kcat (SGZ)", "setting": "[1]; [9]", "result": "6 ± 0.333", "unit": "s⁻¹"},
      {"measurement": "Km", "setting": "[1]; [11]", "result": "0.9 ± 0.2", "unit": "µM"},
      {"measurement": "kcat (SGZ)", "setting": "[2]; [9]", "result": "55 ± 1.67", "unit": "s⁻¹"},
      {"measurement": "Km", "setting": "[2]; [11]", "result": "1.8 ± 0.2", "unit": "µM"},
      {"measurement": "kcat (SGZ)", "setting": "[3]; [9]", "result": "4.25 ± 0.183", "unit": "s⁻¹"},
      {"measurement": "Km", "setting": "[3]; [11]", "result": "35 ± 4", "unit": "µM"},
      {"measurement": "kcat (SGZ)", "setting": "[4]; [9]", "result": "0.0183 ± 0.0017", "unit": "s⁻¹"},
      {"measurement": "Km", "setting": "[4]; [11]", "result": "3.9 ± 0.3", "unit": "µM"},
      {"measurement": "kcat (SGZ)", "setting": "[6]", "result": "9.17 ± 0.667", "unit": "s⁻¹"}
    ]},
    {"molecule": "B1", "values": [
      {"measurement": "Km", "setting": "[7]; other: RsL wt", "result": "52 ± 6", "unit": "µM"},
      {"measurement": "Km", "setting": "[8]; other: RsL wt", "result": "28 ± 4", "unit": "µM"}
    ]},
    {"molecule": "B2", "values": [
      {"measurement": "Km", "setting": "[7]; other: MtL wt", "result": "110 ± 20", "unit": "µM"},
      {"measurement": "Km", "setting": "[8]; other: MtL wt", "result": "1.4 ± 0.2", "unit": "µM"}
    ]}
  ]
}
